Here are results for 65 compounds from a melting point compilation (Tetko et al.; mined from patent text by program, amines drawn as free bases though some values may be those of a salt).

The melting point is the temperature of the solid-liquid transition.

`COc1cc(N2CCN(C)CC2)c2oc(C(=O)Nc3ccc(N4CCN(C(=O)CCO)CC4)cc3)cc(=O)c2c1` gave a melting point of 195 to 197 °C.
Then `CCOC(C)OC(CCOc1ccc([N+](=O)[O-])cc1)C(F)(F)F` (stereo not given), with 81 °C; and `CCCCc1oc2ccccc2c1C(=O)NCc1ccc2c(Br)c(O)ccc2c1`, with 192 to 193 °C.
Then `O=C(O)c1oc(=O)c2ccc(Cl)cc2c1-c1ccccc1`, with 206 to 208 °C; and `COc1ccc(-c2ccc(C(C)=O)cc2)cc1OC1CCCC1`, with 117 to 118 °C; and `Cc1nc(-c2ccccc2)n(-c2ccc(S(C)(=O)=O)cc2)n1`, with 118 to 119 °C.
The value for `Cc1nn(S(=O)Oc2ccccc2)c2ccccc12` (stereo not given) was 141 to 143 °C.
Consider `Cc1cccc(-c2nsc(C(=O)O)c2C(=O)O)c1`, for which the melting point fell in the range of 166 to 167 °C.
Then `COc1cc(C(=O)c2c(F)cccc2F)ccc1O`, with 147 to 149 °C; and `CCOC(=O)C1=C(C)NC(c2cscn2)=NC1c1cccc(F)c1` (stereo not given), with 118 to 120 °C.
In the case of `CC(=O)c1ccc(S(=O)(=O)N2CCCC2)cc1`, the melting point fell in the range of 138 to 139 °C.
Then `O=C(NC1CC1)c1nc(-c2ccccc2)c(-c2ccc(=O)[nH]n2)s1`, with above 250 °C; and `COc1ccc(-c2nc3nccnc3[nH]2)c(OCC#N)c1`, with 232 to 233 °C.
Then `CNC(Cc1ccccc1)c1nc(C(=O)NCc2ccccc2)no1` (stereo not given), with 128 °C.
The value for `COc1cc(N)c(Cl)cc1C(=O)NC1CCN(CCCC2(C)NC(=O)NC2=O)CC1OC` (stereo not given) was 236 °C; that for `NS(=O)(=O)c1ccc(-c2cc(-c3nc(-c4ccc(F)c(F)c4)cc(C(F)(F)F)n3)ccn2)s1` was 281 °C; that for `Cc1ccc2c(cc(CCCC(=O)O)n2S(=O)(=O)c2ccc3ncsc3c2)n1` was 67 to 70 °C.
For `CC(=O)c1cccc(-c2ccc(O)cc2)c1`, the melting point lay within 146 to 149 °C.
Then `NC(=O)N1CC(Oc2cccc(F)c2)C1`, with 169 to 170 °C; and `COc1c(C2=NC(C)(C)CO2)ccc(C2=NC(C)(C)CO2)c1OC`, with 84.5 to 85.5 °C.
Take `COC(=O)C[C@H](CCC(=O)OCc1ccccc1)NC(=O)OC(C)(C)C`: the melting point lay within 97 to 98 °C.
Then `CN(c1cccc2cc(C3=NCC4(CCN(Cc5nccn5C)CC4)S3)[nH]c12)S(=O)(=O)c1cccs1`, with 103 °C; and `O=C1Nc2ccc([N+](=O)[O-])cc2Cn2nnnc21`, with 276 to 279 °C; and `COc1cc([N+](=O)[O-])ccc1S(=O)(=O)Nc1ccc(C)cc1`, with 126 to 129 °C.
The value for `Cc1ccc2c(c1)[C@@]1(C)Cc3ccccc3[C@@]1(C)N2` (relative stereo) was 208 to 212 °C; that for `COC(=O)c1ccc2c(nnn2C)c1C(=O)OC` was 146 to 147 °C; that for `c1cncc(C2=NNC(c3cccnc3)S2)c1` (stereo not given) was 77 to 78 °C.
Compound `COC(=O)c1cccc(C)c1S(=O)(=O)Cl` returned a melting point of 114 to 116 °C.
Then `NS(=O)c1ncnc2c1ccn2C1CC(O)C(CO)O1` (stereo not given), with 170 to 172 °C; and `CCCCCCC(N)(c1ccccc1)C(C)(C)O` (stereo not given), with 64.5 to 65.5 °C; and `CS(=O)(=O)OCc1cc(-c2ccc3occc3c2)nn(Cc2ccc(F)cc2)c1=O`, with 162 to 165 °C.
`CCCC(Oc1ccc2c(-c3ccc(Cl)cc3)noc2c1)C(=O)OCC` (stereo not given) yielded a melting point of 88 °C.
`O=C1OC(=O)c2c(Sc3ccc(Cl)c(Cl)c3)cc([N+](=O)[O-])cc21` displayed a melting point of 154 to 157 °C.
On to `CN(CCCN)S(=O)(=O)CCC(F)(F)C(F)(F)C(F)(F)C(F)(F)C(F)(F)C(F)(F)F`, for which the melting point amounted to 135 °C.
Then `COc1cccc(C(O)C2CCN(CCc3ccc(F)cc3)CC2)c1OC` (stereo not given), with 114 to 116 °C.
Then `CC1(C)Oc2cc3nonc3cc2C(NC(=O)NCCCCl)C1O` (stereo not given), with 83 to 85 °C; and `CCOc1ccc(C(C)=O)cc1C(=O)O`, with 122 to 125 °C.
The value for `COc1ccc(-c2noc(C3CCCN(C(=O)c4ccccc4)C3)n2)cc1` (stereo not given) was 121 °C; that for `CCCc1nc2ncnn2c(N)c1CCc1ccccc1` was 190 to 191 °C; that for `CCC(Oc1cnc(Cl)c(Cl)c1)C(=O)O` (stereo not given) was 117 to 118 °C.
Compound `O=C1Nc2ccccc2SC1CCN1C=CN(c2ccc(F)cc2)C=C1` (stereo not given) displayed a melting point of 158 to 159 °C.
Then `CCCN(CCC)c1nc2c(N3CCSCC3)nccc2c(=O)[nH]1`, with 226 °C; and `CC(=O)c1ccc(-c2ccc(Br)cc2C)cc1`, with 84 to 86 °C; and `O=C(Nc1ccccc1)c1ccc([N+](=O)[O-])cc1`, with 90 to 93 °C.
Then `CCCCCCCCCCCCOC(=O)c1ccc(O)c([N+](=O)[O-])c1`, with 70 °C; and `NS(=O)(=O)Oc1ccccc1C(=O)O`, with 139 to 140 °C; and `CC(C(=O)O)c1ccc([N+](=O)[O-])c(F)c1` (stereo not given), with 74 to 77 °C.
Then `COc1cc(OC)nc(Oc2ccnc3cc(Cl)ccc23)n1`, with 119 to 120 °C.
As to `NC(=O)CN1C(=O)C(NC(=O)c2cc3ccccc3[nH]2)C(Cc2ccccc2)Sc2ccccc21` (stereo not given), the melting point amounted to 275 °C.
The value for `C=C(C)OC(=O)N1c2ccncc2NC(=O)C1C` (racemic) was 170 to 171 °C; that for `c1ccc(N2C(=NCCCn3ccnc3)c3cccc4cccc2c34)cc1` was 103 to 105 °C.
Then `Cc1cc(N)c(OCc2ccccc2)c(Cl)c1C`, with 57 to 58 °C; and `Cn1ncc(C(=O)O)c1C(=O)Nc1ccn2nc(N3CCCC3)nc2c1`, with above 250 °C.
Then `CC(C)n1c(/C=C/C(O)CC(O)CC(=O)OC(C)(C)C)c(-c2ccc(F)cc2)c2ncccc21` (stereo not given), with 62 to 65 °C; and `CCCCOc1c(CN2C(=O)c3ccccc3C2=O)n(CC2CC2)c(=O)c2ccc(OCc3ccccc3)cc12`, with 127 to 128 °C; and `CCCCC(=O)Nc1ccc(Br)c(-n2nc(CC)n(Cc3ccc(-c4ccccc4S(=O)(=O)NC(=O)OC(C)(C)C)cc3F)c2=O)c1`, with 108 to 110 °C.
In turn, `CCCCc1nc2cccc(C(=O)O)c2n1Cc1ccc(-c2c(-c3nnn[nH]3)oc3ccccc23)cc1` showed a melting point of 194 to 195 °C.
Then `c1coc(C2=NOCCS2)c1`, with 147 to 150 °C; and `COc1cc([C@@H]2c3cc4c(cc3C=C[C@H]2C(=O)O)OCO4)cc(OC)c1OC` (relative stereo), with 177 to 180 °C; and `Clc1ccc2c(C3=CCN(CCC4CCc5ccccc54)CC3)c[nH]c2c1` (stereo not given), with 181 to 183 °C.
Then `CS(=O)Cc1ccc(C(=O)c2ccc(Cl)cc2)cc1` (stereo not given), with 116 to 118 °C.
Turning to `CC(O)Cc1cc2c3ccccc3[nH]c(=O)n2n1` (stereo not given), the melting point lay within 228 to 229 °C.
The value for `CN(C)CCNc1cc(Cl)nc(-c2ccccc2)n1` was 140 to 145 °C; that for `Cc1c(C#N)sc2nc(-c3ccc4c(c3)OCO4)nc(N3CCOCC3)c12` was 197 to 198 °C.
Then `O=C(c1ccccc1Nc1ccc(O)cc1)N1CCCCC1`, with 199 to 201 °C.
